Reference: patent US12611438B2, “Antiviral composition comprising a nucleolin-binding peptide” (ANYGEN CO., LTD., priority 2021, dated 2026)
Where two headings read alike, the source gives them in different places.

Experiments:
SARS-COV-2 = settings: for Lung, Alveolar wall thickening: Mild, incidence / Lung, Alveolar wall thickening: Minimal, incidence / Lung, Alveolar wall thickening: Moderate, incidence / Lung, Alveolar wall thickening: Normal, incidence / Lung, Alveolar wall thickening: Severe, incidence / Lung, Hemorrhage: Mild, incidence / Lung, Hemorrhage: Minimal, incidence / Lung, Hemorrhage: Moderate, incidence / Lung, Hemorrhage: Normal, incidence / Lung, Hemorrhage: Severe, incidence / Lung, Hyaline membrane: Mild, incidence / Lung, Hyaline membrane: Minimal, incidence / Lung, Hyaline membrane: Moderate, incidence / Lung, Hyaline membrane: Normal, incidence / Lung, Hyaline membrane: Severe, incidence / Lung, Inflammatory cell, intestinal: Mild, incidence / Lung, Inflammatory cell, intestinal: Minimal, incidence / Lung, Inflammatory cell, intestinal: Moderate, incidence / Lung, Inflammatory cell, intestinal: Normal, incidence / Lung, Inflammatory cell, intestinal: Severe, incidence / Lung, Neutrophilic/lymphocytic cell, alveolar: Mild, incidence / Lung, Neutrophilic/lymphocytic cell, alveolar: Minimal, incidence / Lung, Neutrophilic/lymphocytic cell, alveolar: Moderate, incidence / Lung, Neutrophilic/lymphocytic cell, alveolar: Normal, incidence / Lung, Proteinaceous debris: Mild, incidence / Lung, Proteinaceous debris: Minimal, incidence / Lung, Proteinaceous debris: Moderate, incidence / Lung, Proteinaceous debris: Normal, incidence / Lung, Proteinaceous debris: Severe, incidence: 5 animals
Protocol: Syrian hamsters (Female, 11 weeks, Raon Bio Co., Ltd.) were infected with SARS-COV-2 (2×10^5 pfu/mL) through intranasal irrigation.
Body weight was measured on the day of infection, the second day after infection, and the fourth day after infection.
Autopsy was measured on the fourth day after infection.

in vitro [1] = format: cell-based
Protocol: In order to determine the half maximal cytotoxic concentration (CC50) of AGM-330, confluent A549, MDCK, Vero E6, MA104, MARC-145, and LLC-PK cells grown in 96-well plates were treated with dilutions of NCL-targeting peptide ligands (AGM-330d-mCPP, AGM-330t-mCPP) prepared from a low concentration to […], followed by incubation for 24 hours. After removing each culture medium, 200 μL of a 3-(4,5-dimethylthiazol-2-yl)-2,5-diphenyl tetrazolium bromide (MTT) solution was added thereto, followed by incubation in a 5% CO2 incubator at 36° C. for 4 hours. Then, 150 μL of a DMSO solution was added to each well and then incubated at 20° C. Then, the optical density (OD) was measured at a wavelength of 570 nm with an enzyme-linked immunosorbent assay (ELISA) reader (Table 6).

in vitro [2] = settings: African green monkey
influenza A virus = format: in vivo, C57BL/6 mice; settings: 0.04, 0.2, and 1.00 mg/kg i.p. once a day for 5 days, observed 16 days
[3] = system: A549, MDCK, Vero E6, MA104, MARC-145, and LLC-PK cells; settings: 10 μM

## CC[C@H](C)[C@H](NC(=O)[C@H](CCCNC(=N)N)NC(=O)CCN1C(=O)CC(SC[C@H](NC(=O)[C@H](CCCCNC(=O)CCOCCOCCOCCOCCOCCOCCNC(=O)[C@H](CCCCN)NC(=O)[C@H](CC(C)C)NC(=O)[C@H](Cc2ccc(O)cc2)NC(=O)[C@@H](NC(=O)[C@H](CCSC)NC(=O)[C@H](C)NC(=O)CNC(=O)[C@H](Cc2c[nH]cn2)NC(=O)[C@@H](N)CCCNC(=N)N)C(C)C)NC(=O)CCOCCOCCOCCOCCOCCOCCNC(=O)[C@H](CCCCN)NC(=O)[C@H](CC(C)C)NC(=O)[C@H](Cc2ccc(O)cc2)NC(=O)[C@@H](NC(=O)[C@H](CCSC)NC(=O)[C@H](C)NC(=O)CNC(=O)[C@H](Cc2c[nH]cn2)NC(=O)[C@@H](N)CCCNC(=N)N)C(C)C)C(=O)O)C1=O)C(=O)N[C@@H](CCSC)C(=O)N[C@@H](CCCNC(=N)N)C(=O)N[C@H](C(=O)N[C@@H](CC(C)C)C(=O)N[C@@H](CCCNC(=N)N)C(=O)N[C@H](C(=O)N[C@@H](CC(C)C)C(=O)N[C@@H](CCCCN)C(=O)N[C@@H](CC(C)C)C(=O)N[C@@H](C)C(=O)N[C@@H](CCCNC(=N)N)C(=O)O)[C@@H](C)CC)[C@@H](C)CC (stereo partly shown) [AGM-330d-mCPP]
SARS-COV-2; 6 mg/kg
  lung histopathological lesions versus virus control group: significantly reduced
SARS-COV-2; 6 mg/kg, autopsy fourth day after infection
  macroscopic lung changes versus virus control group: significantly alleviated
SARS-COV-2; 0.2, 2, 6 mg/kg i.p., eight times for four days, observed 5 days after infection
  mortality: no dead animals occurred
SARS-COV-2; 0.2, 2, 6 mg/kg i.p., day of infection, day 2, day 4
  body weight change versus virus control group: No significant weight change
SARS-COV-2; AGM-1: 0.2 mg/kg
  Lung, Alveolar wall thickening: Mild, incidence: 3
  Lung, Alveolar wall thickening: Minimal, incidence: 0
  Lung, Alveolar wall thickening: Moderate, incidence: 2
  Lung, Alveolar wall thickening: Normal, incidence: 0
  Lung, Alveolar wall thickening: Severe, incidence: 0
  Lung, Hemorrhage: Mild, incidence: 2
  Lung, Hemorrhage: Minimal, incidence: 3
  Lung, Hemorrhage: Moderate, incidence: 0
  Lung, Hemorrhage: Normal, incidence: 0
  Lung, Hemorrhage: Severe, incidence: 0
  Lung, Hyaline membrane: Mild, incidence: 3
  Lung, Hyaline membrane: Minimal, incidence: 0
  Lung, Hyaline membrane: Moderate, incidence: 2
  Lung, Hyaline membrane: Normal, incidence: 0
  Lung, Hyaline membrane: Severe, incidence: 0
  Lung, Inflammatory cell, intestinal: Mild, incidence: 2
  Lung, Inflammatory cell, intestinal: Minimal, incidence: 0
  Lung, Inflammatory cell, intestinal: Moderate, incidence: 3
  Lung, Inflammatory cell, intestinal: Normal, incidence: 0
  Lung, Inflammatory cell, intestinal: Severe, incidence: 0
  Lung, Neutrophilic/lymphocytic cell, alveolar: Mild, incidence: 3
  Lung, Neutrophilic/lymphocytic cell, alveolar: Minimal, incidence: 2
  Lung, Neutrophilic/lymphocytic cell, alveolar: Moderate, incidence: 0
  Lung, Neutrophilic/lymphocytic cell, alveolar: Normal, incidence: 0
  Lung, Proteinaceous debris: Mild, incidence: 2
  Lung, Proteinaceous debris: Minimal, incidence: 3
  Lung, Proteinaceous debris: Moderate, incidence: 0
  Lung, Proteinaceous debris: Normal, incidence: 0
  Lung, Proteinaceous debris: Severe, incidence: 0
SARS-COV-2; AGM-2: 2 mg/kg
  Lung, Alveolar wall thickening: Mild, incidence: 3
  Lung, Alveolar wall thickening: Minimal, incidence: 0
  Lung, Alveolar wall thickening: Moderate, incidence: 2
  Lung, Alveolar wall thickening: Normal, incidence: 0
  Lung, Alveolar wall thickening: Severe, incidence: 0
  Lung, Hemorrhage: Mild, incidence: 3
  Lung, Hemorrhage: Minimal, incidence: 2
  Lung, Hemorrhage: Moderate, incidence: 0
  Lung, Hemorrhage: Normal, incidence: 0
  Lung, Hemorrhage: Severe, incidence: 0
  Lung, Hyaline membrane: Mild, incidence: 3
  Lung, Hyaline membrane: Minimal, incidence: 0
  Lung, Hyaline membrane: Moderate, incidence: 2
  Lung, Hyaline membrane: Normal, incidence: 0
  Lung, Hyaline membrane: Severe, incidence: 0
  Lung, Inflammatory cell, intestinal: Mild, incidence: 1
  Lung, Inflammatory cell, intestinal: Minimal, incidence: 0
  Lung, Inflammatory cell, intestinal: Moderate, incidence: 3
  Lung, Inflammatory cell, intestinal: Normal, incidence: 0
  Lung, Inflammatory cell, intestinal: Severe, incidence: 1
  Lung, Neutrophilic/lymphocytic cell, alveolar: Mild, incidence: 3
  Lung, Neutrophilic/lymphocytic cell, alveolar: Minimal, incidence: 2
  Lung, Neutrophilic/lymphocytic cell, alveolar: Moderate, incidence: 0
  Lung, Neutrophilic/lymphocytic cell, alveolar: Normal, incidence: 0
  Lung, Proteinaceous debris: Mild, incidence: 2
  Lung, Proteinaceous debris: Minimal, incidence: 3
  Lung, Proteinaceous debris: Moderate, incidence: 0
  Lung, Proteinaceous debris: Normal, incidence: 0
  Lung, Proteinaceous debris: Severe, incidence: 0
SARS-COV-2; AGM-3: 6 mg/kg
  Lung, Alveolar wall thickening: Mild, incidence: 3
  Lung, Alveolar wall thickening: Minimal, incidence: 2
  Lung, Alveolar wall thickening: Moderate, incidence: 0
  Lung, Alveolar wall thickening: Normal, incidence: 0
  Lung, Alveolar wall thickening: Severe, incidence: 0
  Lung, Hemorrhage: Mild, incidence: 0
  Lung, Hemorrhage: Minimal, incidence: 5
  Lung, Hemorrhage: Moderate, incidence: 0
  Lung, Hemorrhage: Normal, incidence: 0
  Lung, Hemorrhage: Severe, incidence: 0
  Lung, Hyaline membrane: Mild, incidence: 1
  Lung, Hyaline membrane: Minimal, incidence: 4
  Lung, Hyaline membrane: Moderate, incidence: 0
  Lung, Hyaline membrane: Normal, incidence: 0
  Lung, Hyaline membrane: Severe, incidence: 0
  Lung, Inflammatory cell, intestinal: Mild, incidence: 3
  Lung, Inflammatory cell, intestinal: Minimal, incidence: 2
  Lung, Inflammatory cell, intestinal: Moderate, incidence: 0
  Lung, Inflammatory cell, intestinal: Normal, incidence: 0
  Lung, Inflammatory cell, intestinal: Severe, incidence: 0
  Lung, Neutrophilic/lymphocytic cell, alveolar: Mild, incidence: 0
  Lung, Neutrophilic/lymphocytic cell, alveolar: Minimal, incidence: 5
  Lung, Neutrophilic/lymphocytic cell, alveolar: Moderate, incidence: 0
  Lung, Neutrophilic/lymphocytic cell, alveolar: Normal, incidence: 0
  Lung, Proteinaceous debris: Mild, incidence: 1
  Lung, Proteinaceous debris: Minimal, incidence: 4
  Lung, Proteinaceous debris: Moderate, incidence: 0
  Lung, Proteinaceous debris: Normal, incidence: 0
  Lung, Proteinaceous debris: Severe, incidence: 0
In vitro [1]; African green monkey, MA-104, MTT
  CC50 at 24 h: 99.9 µM
In vitro [1]; African green monkey, MARC-145, MTT
  CC50 at 24 h: 98 µM
In vitro [1]; African green monkey, Vero E6, MTT
  CC50 at 24 h: 108 µM
In vitro [1]; human, A549, MTT
  CC50 at 24 h: 102 µM
In vitro [1]; human, HRT-18, MTT
  CC50 at 24 h: 89.5 µM
In vitro [1]; pig, LLC-PK, MTT
  CC50 at 24 h: 101 µM
In vitro [2]
  CC50 at 24 h: > 20 µM
Influenza A virus
  survival rate: significantly improved survival rate
[3]
  cytotoxicity at high concentration: did not exhibit significant cytotoxicity
